Data as given in patent US7947293B2, “Aqueous pharmaceutical formulation” (Arpida AG, priority 2008, dated 2011).
Read-outs that look alike come from different tables or passages of the source.

Key:
Type in all cases: physicochemical
[1] = Stress heating of standard formulation (simulated long term storage), HPLC; details: 20 mg/mL in 30% propylene glycol in water, normal atmosphere
Description: Within the scope of the present invention various standard aqueous formulations of 5-[(2RS)-2-cyclopropyl-7,8-dimethoxy-2H-1-benzopyran-5-ylmethyl]-pyrimidine-2,4-diamine and its acid addition salts were tested for long term stability. For example, vials of 5-[(2RS)-2-cyclopropyl-7,8-dimethoxy-2H-1-benzopyran-5-ylmethyl]-pyrimidine-2,4-diamine methanesulfonic acid salt were prepared in 30% propylene glycol in water at a concentration of iclaprim of 20 mg/mL. In order to examine the stability of the above standard formulations a model system was used to simulate long term storage conditions. In this model system, the solutions to be tested are stress heated at 40° C. and 70° C. for at least 12 days. The analysis of the solutions after completion of the heating step were made by means of methods well known to those skilled in the art such as, for example, HPLC measurements. Vials of 5-[(2RS)-2-cyclopropyl-7,8-dimethoxy-2H-1-benzopyran-5-ylmethyl]-pyrimidine-2,4-diamine methanesulfonic acid salt (20 mg/mL) were prepared in 30% propylene glycol in Millipore water under normal atmosphere. In order to examine the stability of the above formulation a model experiment was developed wherein the solutions to be tested are stress heated. It is well know in the art that by heating a test sample at a temperature higher than room temperature (about 20° C.) such as between 40° C. and 70° C. for a prolonged period of time, long storage conditions can be simulated. The analysis of the solutions after completion of the heating step was made by means of visual examinations and HPLC measurements.

[2] = Stability of iclaprim under simulated sterilization conditions at pH<3.5, HPLC; details: 30% propylene glycol or 10% glycofurol in water
Description: Further stability tests of the above standard formulations were performed, wherein the pH was adjusted with citric acid below 3.5 under simulated sterilization conditions, such as 100° C. for 2 h. Vials of 5-[(2RS)-2-cyclopropyl-7,8-dimethoxy-2H-1-benzopyran-5-ylmethyl]-pyrimidine-2,4-diamine methanesulfonic acid salt were prepared in 30% propylene glycol or 10% glycofurol in water. The pH of the so obtained solution was adjusted to pH 3 with 1M citric acid or to pH 1 with 1N hydrochloric acid, and the vials were heated in order to simulate a sterilization process. The analysis of the solutions after completion of the heating step was performed by means of visual examinations and HPLC measurements.

[3] = Solubility of iclaprim methanesulfonic acid salt in aqueous/organic solutions, HPLC of supernatant; details: for solubility at 24 h: thermodynamic from solid
Description: A fixed amount of iclaprim mesylate was suspended in the different aqueous/organic solutions. The suspension was stirred at room temperature for 24 hours. The supernatant of the solutions were analyzed by HPLC to determine the amount of iclaprim in the solution.

% iclaprim ([1]; 12 days, 40° C.)	% iclaprim ([1]; 12 days, 70° C.)	% iclaprim ([1]; 45 days, about 20° C.)	% iclaprim ([1]; fresh solution, 0 min, about 20° C.)	% iclaprim ([2]; 1 h, 37° C., pH 1)	% iclaprim ([2]; 2 h, 100° C., pH 1)	% iclaprim ([2]; 2 h, 100° C., pH 3)	% iclaprim ([2]; 3 h, 37° C., pH 1)	% iclaprim ([2]; 3 h, 37° C., pH 3)	% iclaprim ([2]; fresh solution, 0 min, about 20° C., pH 4.5 (reference, no pH adjustment))	solubility at 24 h ([3]; 10% propylene glycol in saline 0.9%, aqueous with cosolvent or surfactant or cyclodextrin, 10% (saline 0.9%) propylene glycol, room temperature, 24 hours, read-out: Solubility calculated form HPLC measurements)	solubility at 24 h ([3]; aqueous with cosolvent or surfactant or cyclodextrin, 10% aqueous propylene glycol, room temperature, 24 hours, read-out: Solubility calculated form HPLC measurements)	solubility at 24 h ([3]; saline or isotonic, Saline 0.9%, room temperature, 24 hours, read-out: Solubility calculated form HPLC measurements)	solubility at 24 h ([3]; saline solution with reduced propylene glycol, aqueous with cosolvent or surfactant or cyclodextrin, in saline solution, reduced propylene glycol, pH above 4.0, read-out: maximal solubility achieved)	concentration at which precipitation was observed ([3]; saline solutions, e.g. 10% propylene glycol saline solution)	solubility at 24 h ([3]; water, room temperature, 24 hours, read-out: Solubility calculated form HPLC measurements)	SMILES
97.0%	90.0%	97.5%	99.1%	99.0%	60.0%	86.5%	96.3%	99.0%	99.1%							COc1cc(Cc2cnc(N)nc2N)c2c(c1OC)OC(C1CC1)C=C2 (racemic) [iclaprim, 5-[(2RS)-2-cyclopropyl-7,8-dimethoxy-2H-1-benzopyran-5-ylmethyl]-pyrimidine-2,4-diamine]
										7500 µg/mL	27800 µg/mL	1200 µg/mL	7500 µg/mL	above 7.5 mg/mL	18100 µg/mL	COc1cc(Cc2cnc(N)nc2N)c2c(c1OC)OC(C1CC1)C=C2.CS(=O)(=O)O (racemic) [iclaprim methanesulfonic acid salt, 5-[(2RS)-2-cyclopropyl-7,8-dimethoxy-2H-1-benzopyran-5-ylmethyl]-pyrimidine-2,4-diamine methanesulfonic acid salt]
